Results: patent US12172990B2 (Constellation Pharmaceuticals, Inc., priority 2018, dated 2024)

Legend:
[1] = target: full length human TREX1 (Homo sapiens (Human), UniProt Q9NSU2); assay: TREX1 Biochemical Assay (fluorescence assay measuring degradation of dsDNA substrate); conditions: 150 pM TREX1, 60 nM dsDNA substrate, 25 minutes at room temperature
Protocol: Degradation of the dsDNA liberates free fluorophore to produce a fluorescent signal. Specifically, 7.5 μL of N-terminally His-Tev tagged full length human TREX1 (expressed in E. coli and purified in house) in reaction buffer (50 mM Tris (pH 7.4), 150 mM NaCl, 2 mM DTT, 0.1 mg/mL BSA, 0.01% (v/v) Tween-20 and 100 mM MgCl2 were added to a 384-well Black ProxiPlate Plus (Perkin Elmer) which already contained compound (150 nL) at varying concentrations as a 10 point dose-response in DMSO. To this was added 7.5 μL of dsDNA substrate (Strand A: 5′ TEX615/GCT AGG CAG 3′; Strand B: 5′ CTG CCT AGC/IAbRQSp (Integrated DNA Technologies)) in reaction buffer. Final concentrations were 150 pM TREX1, 60 nM dsDNA substrate in reaction buffer with 1.0% DMSO (v/v). After 25 minutes at room temperature, reactions were quenched by the addition of 5 μL of stop buffer (same as reaction buffer plus 200 mM EDTA). Final concentrations in the quenched reaction were 112.5 pM TREX1, 45 nM DNA and 50 mM EDTA in a volume of 20 μL. After a 5-minute incubation at room temperature, plates were read in a laser sourced Envision (Perkin-Elmer), measuring fluorescence at 615 nm following excitation w/570 nm light. IC50 values were calculated by comparing the measured fluorescence at 615 nm ratio relative to control wells pre-quenched w/stop buffer (100% inhibition) and no inhibitor (0% inhibition) controls as using non-linear least square four parameter fits and either Genedata or GraphPad Prism (GraphPad Software, Inc.).

[2] = target: human TREX2 (residues M44-A279) (Homo sapiens (Human), UniProt Q9BQ50); assay: TREX2 Biochemical Assay (fluorescence assay measuring degradation of dsDNA substrate); conditions: 2.5 nM TREX2, 60 nM dsDNA substrate, 25 minutes at room temperature
human TREX2 (residues M44-A279), sequence (Q9BQ50 whole entry, the tested form may be a part): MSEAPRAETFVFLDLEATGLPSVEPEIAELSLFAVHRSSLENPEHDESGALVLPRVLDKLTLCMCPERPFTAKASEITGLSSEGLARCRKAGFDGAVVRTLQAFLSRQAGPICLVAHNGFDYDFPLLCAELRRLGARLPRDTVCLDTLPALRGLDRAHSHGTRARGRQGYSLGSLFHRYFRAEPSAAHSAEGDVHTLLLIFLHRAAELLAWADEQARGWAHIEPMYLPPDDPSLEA
Protocol: Degradation of the dsDNA liberates free fluorophore to produce a fluorescent signal. Specifically, 7.5 μL of N-terminally His-Tev tagged human TREX2 (residues M44-A279, expressed in E. coli and purified in house) in reaction buffer (50 mM Tris (pH 7.4), 150 mM NaCl, 2 mM DTT, 0.1 mg/mL BSA, 0.01% (v/v) Tween-20 and 100 mM MgCl2) was added to a 384-well Black ProxiPlate Plus (Perkin Elmer) which already contained compound (150 nL) at varying concentrations as a 10 point dose-response in DMSO. To this was added 7.5 μL of dsDNA substrate (Strand A: 5′ TEX615/GCT AGG CAG 3′; Strand B: 5′ CTG CCT AGC/IAbRQSp (IDT)) in reaction buffer. Final concentrations were 2.5 nM TREX2, 60 nM dsDNA substrate in reaction buffer with 1.0% DMSO (v/v). After 25 minutes at room temperature, reactions were quenched by the addition of 5 μL of stop buffer (same as reaction buffer plus 200 mM EDTA). Final concentrations in the quenched reaction mixture were […] TREX2, 45 nM DNA and 50 mM EDTA in a volume of 20 μL. After a 5-minute incubation at room temperature, plates were read in a laser sourced Envision (Perkin-Elmer), measuring fluorescence at 615 nm following excitation w/570 nm light. IC50 values were calculated by comparing the measured fluorescence at 615 nm ratio relative to control wells pre-quenched w/stop buffer (100% inhibition) and no inhibitor (0% inhibition) controls as using non-linear least square four parameter fits and either Genedata or GraphPad Prism (GraphPad Software, Inc.).

full length human TREX1, sequence (Q9NSU2 whole entry): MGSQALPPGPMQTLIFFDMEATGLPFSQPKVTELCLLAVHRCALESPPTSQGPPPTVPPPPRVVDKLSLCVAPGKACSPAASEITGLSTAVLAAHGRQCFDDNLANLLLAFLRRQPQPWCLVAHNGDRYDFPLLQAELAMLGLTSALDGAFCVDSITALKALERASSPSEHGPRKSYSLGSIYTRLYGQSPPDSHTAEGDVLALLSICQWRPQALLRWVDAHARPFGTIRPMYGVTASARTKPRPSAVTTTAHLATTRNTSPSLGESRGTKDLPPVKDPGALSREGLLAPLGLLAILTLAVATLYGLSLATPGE

IC50 [1] [µM] | IC50 [2] [µM] | SMILES
< 0.1 | 1 to 10 | Cc1cc(Br)cc(-c2nc(C(=O)Nc3cnoc3)c(O)c(=O)n2C)c1 [Example 1, 2-(3-bromo-5-methylphenyl)-5-hydroxy-N-(isoxazol-4-yl)-1-methyl-6-oxo-1,6-dihydropyrimidine-4-carboxamide]
0.1 to 1 | 10 to 100 | Cn1c(C2CCC2)nc(C(=O)Nc2cnoc2)c(O)c1=O [Example 2, 2-cyclobutyl-5-hydroxy-N-(isoxazol-4-yl)-1-methyl-6-oxo-1,6-dihydropyrimidine-4-carboxamide]
0.1 to 1 | 10 to 100 | Cn1c(C2CC2)nc(C(=O)Nc2cnoc2)c(O)c1=O [Example 3, 2-cyclopropyl-5-hydroxy-N-(isoxazol-4-yl)-1-methyl-6-oxo-1,6-dihydropyrimidine-4-carboxamide]
0.1 to 1 | 1 to 10 | Cc1ccc(Br)cc1-c1nc(C(=O)Nc2cnoc2)c(O)c(=O)n1C [Example 4, 2-(5-bromo-2-methylphenyl)-5-hydroxy-N-(isoxazol-4-yl)-1-methyl-6-oxo-1,6-dihydropyrimidine-4-carboxamide]
< 0.1 | 1 to 10 | Cc1c(Br)cccc1-c1nc(C(=O)Nc2cnoc2)c(O)c(=O)n1C [Example 5, 2-(3-bromo-2-methylphenyl)-5-hydroxy-N-(isoxazol-4-yl)-1-methyl-6-oxo-1,6-dihydropyrimidine-4-carboxamide]
0.1 to 1 | 10 to 100 | Cn1c(Cc2ccccc2)nc(C(=O)Nc2cnoc2)c(O)c1=O [Example 6, 2-benzyl-5-hydroxy-N-(isoxazol-4-yl)-1-methyl-6-oxo-1,6-dihydropyrimidine-4-carboxamide]
0.1 to 1 | 10 to 100 | Cn1c(C2(NC(=O)OCc3ccccc3)CC2)nc(C(=O)Nc2cnoc2)c(O)c1=O [Example 7, benzyl (1-(5-hydroxy-4-(isoxazol-4-ylcarbamoyl)-1-methyl-6-oxo-1,6-dihydropyrimidin-2-yl)cyclopropyl)carbamate]
0.1 to 1 | 10 to 100 | Cn1c(-c2ccccc2)nc(C(=O)Nc2cnoc2)c(O)c1=O [Example 8, 5-hydroxy-N-(isoxazol-4-yl)-1-methyl-6-oxo-2-phenyl-1,6-dihydropyrimidine-4-carboxamide]
0.1 to 1 | 10 to 100 | Cn1c(-c2ccccc2Br)nc(C(=O)Nc2cnoc2)c(O)c1=O [Example 9, 2-(2-bromophenyl)-5-hydroxy-N-(isoxazol-4-yl)-1-methyl-6-oxo-1,6-dihydropyrimidine-4-carboxamide]
< 0.1 | 1 to 10 | Cn1c(-c2cccc(Br)c2)nc(C(=O)Nc2cnoc2)c(O)c1=O [Example 10, 2-(3-bromophenyl)-5-hydroxy-N-(isoxazol-4-yl)-1-methyl-6-oxo-1,6-dihydropyrimidine-4-carboxamide]
0.1 to 1 | 10 to 100 | Cn1c(-c2ccc(Br)cc2)nc(C(=O)Nc2cnoc2)c(O)c1=O [Example 11, 2-(4-bromophenyl)-5-hydroxy-N-(isoxazol-4-yl)-1-methyl-6-oxo-1,6-dihydropyrimidine-4-carboxamide]
1 to 10 | 10 to 100 | Cn1c(C2CCN(C(=O)OC(C)(C)C)CC2)nc(C(=O)Nc2cnoc2)c(O)c1=O [Example 12, tert-butyl 4-(5-hydroxy-4-(isoxazol-4-ylcarbamoyl)-1-methyl-6-oxo-1,6-dihydropyrimidin-2-yl)piperidine-1-carboxylate]
0.1 to 1 | 10 to 100 | Cn1c(C2CCCN(C(=O)OC(C)(C)C)C2)nc(C(=O)Nc2cnoc2)c(O)c1=O (stereo not shown) [Example 13, tert-butyl 3-(5-hydroxy-4-(isoxazol-4-ylcarbamoyl)-1-methyl-6-oxo-1,6-dihydropyrimidin-2-yl)piperidine-1-carboxylate]
0.1 to 1 | 1 to 10 | Cn1c(C2CCCCN2C(=O)OC(C)(C)C)nc(C(=O)Nc2cnoc2)c(O)c1=O (stereo not shown) [Example 14, tert-butyl 2-(5-hydroxy-4-(isoxazol-4-ylcarbamoyl)-1-methyl-6-oxo-1,6-dihydropyrimidin-2-yl)piperidine-1-carboxylate]
